Test [1] relates to human hepatic stellate cells (LX-2). Briefly: MTT cytotoxicity assay, LX-2 normal control. Format: cell-based. The conditions noted are these: Homo sapiens, 72-h incubation. Here is the method:
(§1) The above cells were tested for cytotoxicity to identify the most promising antitumor drug among the synthesized quinazolinone derivatives.
(§2) An MTT assay was used to evaluate the in vitro cytotoxicity of the new compounds. The MTT assay depends on the reduction of soluble 3-([…])-2,5-diphenyl-tetrazolium bromide (MTT) into a blue purple formazan product, mainly by mitochondrial reductase activity inside living cells. […] The cells were suspended in growth medium and plated in 96-well culture plates at a density of 4 × 10^4 cells/well and incubated at 37 °C in a 5% CO2 incubator. […] Each experiment was performed at least 3 times.
On the technique in general: Formazan colour is commonly taken as a measure of viable cells.

Test [2] can be described thus: DPPH• free radical scavenging assay. The conditions noted are these: concentration required to scavenge 50% of the DPPH; 30 min in the dark. Here is the method: The quinazolinone derivatives were evaluated for their free radical scavenging activity at 320, 160, 80, 40, 20, and 10 µM concentration using the DPPH radical method, with ascorbic acid as the positive control (Table 3).
The antiradical activity of the compounds was estimated according to a slight modification of the procedure reported by Morales and Jimenez-Perez. […] Each sample (100 μL) at a different concentration was added to a freshly prepared solution of 1,1-diphenyl-2-picrylhydrazyl (DPPH•) radical (0.2 mM, 100 μL). The mixtures (200 μL) were placed in a 96-well microplate, shaken vigorously, and then left to stand for 30 min in the dark. Then, absorbance was immediately measured at a wavelength of 517 nm. Vc was used as the standard. The antiradical activity for each compound was determined in the Vc equivalent antioxidant capacity. The DPPH• solution in the presence of ethanol and in the absence of compounds was tested and used as a negative control. […] In all experiments, the samples were analyzed in triplicate, and activity for each compound was presented as the mean value ± SEM and used for evaluation of structure–activity relationships. […] Absorbance was taken at 520 nm using a microplate reader (Tecan, Männedorf, Switzerland).
A general note: Loss of DPPH colour is used to gauge radical scavenging.

In test [3] the test system is breast cancer cells (MDA-MB-231). Briefly: MTT cytotoxicity assay, MDA-MB-231. The class given is cell-based, human. The conditions noted are these: Homo sapiens, 72-h incubation. How it is done: as §1, §2
Test [4] has as its system human liver cancer cells (HepG-2). Briefly: MTT cytotoxicity assay, HepG-2. The class given is cell-based. The conditions noted are these: 72-h incubation. Here is the method:
as §1, §2

The test system of test [5] is ovarian cancer cells (A2780). Briefly: MTT cytotoxicity assay, A2780. The class given is cell-based, human. The conditions noted are these: Homo sapiens, A2780, 72 h, 72-h incubation. Here is the method:
as §1, §2

Structures are written as SMILES. A value given as a limit tells only on which side of the number the result lay.

For orientation: IC50 means the point on the concentration scale where inhibition reaches its midpoint.

On to `NCCCN1C(=O)NC(CC(=O)NC(CO)C(N)=O)c2cc(NC(=O)c3ccncc3)ccc21` (centres unmarked) [CA1-a, 3-{4-{2-[(1-amino-3-hydroxy-1-oxopropan-2-yl)amino]-2-oxoethyl}-6-(isonicotinamido)-2-oxo-3,4-dihydroquinazolin-1(2H)-yl}propan-1-aminium 2,2,2-trifluoroacetate], for which the half-inhibitory concentration (IC50) in test [1] is more than 100 µM; in test [2], more than 1000 µM; in test [3] it was 86 ± 2.06 µM; in test [4] (Homo sapiens, HepG2, 72 h) it was 54.4 ± 3.45 µM; in test [5], 80 ± 2.15 µM.
Consider `NCCCN1C(=O)NC(CC(=O)NC(CO)C(N)=O)c2cc(NC(=O)c3ccccn3)ccc21` (centres unmarked) [CA1-f, 3-{4-{2-[(1-amino-3-hydroxy-1-oxopropan-2-yl)amino]-2-oxoethyl}-2-oxo-6-(picolinamido)-3,4-dihydroquinazolin-1(2H)-yl}propan-1-aminium 2,2,2-trifluoroacetate], for which the IC50 in test [1] is 97 ± 4.24 µM; in test [2], more than 1000 µM; in test [3], 81.3 ± 1.21 µM; in test [4], 44.4 ± 2.2 µM; in test [4] (Homo sapiens, HepG2, 72 h), less than 50 µM; in test [5], more than 100 µM.
For `NCCCN1C(=O)NC(CC(=O)NC(CO)C(N)=O)c2cc(N)ccc21` (centres unmarked) [CA1-7, 4-{2-[(1-amino-3-hydroxy-1-oxopropan-2-yl)amino]-2-oxoethyl}-1-(3-ammoniopropyl)-2-oxo-1,2,3,4-tetrahydroquinazolin-6-aminium 2,2,2-trifluoroacetate], the IC50 in test [1] is more than 100 µM; in test [2], 57.99 ± 0.38 µM; in test [3] it was 90.1 ± 10.9 µM; in test [4] (Homo sapiens, HepG2, 72 h) it was 59.3 ± 1.85 µM; in test [5], 79.8 ± 1.01 µM.
On the same counts, the results for `NCCCN1C(=O)NC(CC(=O)NC(CO)C(N)=O)c2cc(NC(=O)c3ccccc3)ccc21` (centres unmarked) [CA1-b, 3-{4-{2-[(1-amino-3-hydroxy-1-oxopropan-2-yl)amino]-2-oxoethyl}-6-benzamido-2-oxo-3,4-dihydroquinazolin-1(2H)-yl}propan-1-aminium 2,2,2-trifluoroacetate] are 85.8 ± 4.28 µM, more than 1000 µM, 76.6 ± 2.42 µM, 60.1 ± 3.88 µM and more than 100 µM.
On the same counts, the results for `COc1ccccc1S(=O)(=O)Nc1ccc2c(c1)C(CC(=O)NC(CO)C(N)=O)NC(=O)N2CCCN` (centres unmarked) [CA1-j, 3-{4-{2-[(1-amino-3-hydroxy-1-oxopropan-2-yl)amino]-2-oxoethyl}-6-[(2-methoxyphenyl)sulfonamido]-2-oxo-3,4-dihydroquinazolin-1(2H)-yl}propan-1-aminium 2,2,2-trifluoroacetate] are more than 100 µM, more than 1000 µM, 76.3 ± 2.05 µM, 73.8 ± 1.03 µM and 83.6 ± 1.24 µM.
For the compound `CC(C)CCN1C(=O)NC(CC(=O)NC(CCCN)C(N)=O)c2cc(NC(=O)CCc3cccnc3)ccc21` (centres unmarked) [CA3, 5-amino-4-{2-{1-isopentyl-2-oxo-6-[3-(pyridin-3-yl)propanamido]-1,2,3,4-tetrahydroquinazolin-4-yl}acetamido}-5-oxopentan-1-aminium 2,2,2-trifluoroacetate], the IC50 was more than 100 µM in test [1]; more than 1000 µM in test [2]; 86 ± 11.1 µM in test [3]; 64.2 ± 4.69 µM in test [4] (Homo sapiens, HepG2, 72 h); 82.9 ± 2.13 µM in test [5].
For `COc1ccccc1S(=O)(=O)Nc1ccc2c(c1)C(CC(N)=O)NC(=O)N2C` (centres unmarked) [CA7-a, 2-{6-[(2-methoxyphenyl)sulfonamido]-1-methyl-2-oxo-1,2,3,4-tetrahydroquinazolin-4-yl}acetamide], in that order: more than 100 µM, more than 1000 µM, 87.7 ± 2.58 µM, 86.4 ± 3.42 µM and 82.9 ± 2.68 µM.
`NCCCN1C(=O)NC(CC(=O)NC(CO)C(N)=O)c2cc(NC(=O)c3ccc(F)cc3)ccc21` (centres unmarked) [CA1-d, 3-{4-{2-[(1-amino-3-hydroxy-1-oxopropan-2-yl)amino]-2-oxoethyl}-6-(4-fluorobenzamido)-2-oxo-3,4-dihydroquinazolin-1(2H)-yl}propan-1-aminium 2,2,2-trifluoroacetate]: the IC50 is more than 100 µM in test [1]; more than 1000 µM in test [2]; 85.7 ± 4.87 µM in test [3]; 49.6 ± 1.91 µM in test [4]; less than 50 µM in test [4] (Homo sapiens, HepG2, 72 h); 88.3 ± 8.56 µM in test [5].
`CN1C(=O)NC(CC(N)=O)c2cc(NC(=O)c3cccnc3)ccc21` (centres unmarked) [CA6-a, N-[4-(2-amino-2-oxoethyl)-1-methyl-2-oxo-1,2,3,4-tetrahydroquinazolin-6-yl]nicotinamide]: the IC50 in test [1] was more than 100 µM; in test [2], more than 1000 µM; in test [3] it was more than 100 µM; in test [4] (Homo sapiens, HepG2, 72 h), more than 100 µM; in test [5], more than 100 µM.
Consider `CN1C(=O)N(S(=O)(=O)c2ccccc2F)C(CC(N)=O)c2cc(NS(=O)(=O)c3ccccc3F)ccc21` (centres unmarked) [CA7-b′, 2-{6-[(2-fluorophenyl)sulfonamido]-3-[(2-fluorophenyl)sulfonyl]-1-methyl-2-oxo-1,2,3,4-tetrahydroquinazolin-4-yl}acetamide], for which the IC50 in test [1] was more than 100 µM; in test [2], more than 1000 µM; in test [3], more than 100 µM; in test [4] (Homo sapiens, HepG2, 72 h), 95.3 ± 5.47 µM; in test [5], more than 100 µM.
On to `NCCCN1C(=O)NC(CC(=O)NC(CO)C(N)=O)c2cc([N+](=O)[O-])ccc21` (centres unmarked) [CA1-6, 3-{4-{2-[(1-amino-3-hydroxy-1-oxopropan-2-yl)amino]-2-oxoethyl}-6-nitro-2-oxo-3,4-dihydroquinazolin-1(2H)-yl}propan-1-aminium 2,2,2-trifluoroacetate], for which the 50% inhibitory concentration (IC50) in test [1] was 97.9 ± 15.6 µM; in test [2], more than 1000 µM; in test [3] it was 81.2 ± 1.54 µM; in test [4] (Homo sapiens, HepG2, 72 h) it was 52.3 ± 3.45 µM; in test [5], 83.2 ± 2.69 µM.
For `CC(C)(NC(=O)CC1NC(=O)N(Cc2ccccc2)c2ccc(NC(=O)COc3ccccc3)cc21)C(N)=O` (centres unmarked) [CA4, 2-{2-[1-benzyl-2-oxo-6-(2-phenoxyacetamido)-1,2,3,4-tetrahydroquinazolin-4-yl]acetamido}-2-methylpropanamide], in that order: 72.9 ± 0.91 µM, 951 ± 30.6 µM, 87.1 ± 4.47 µM, 72.7 ± 2.76 µM and 66.2 ± 4.1 µM.
